Assay results reported in PMC6358775, “Elucidation of Vasodilation Response and Structure Activity Relationships of N^2,N^4-Disubstituted Quinazoline 2,4-Diamines in a Rat Pulmonary Artery Model” (Molecules, 2019).
In brackets after ≈: the same amount, converted by molar mass. Where two headings read alike, the source gives them in different places.

Key:
[1] = physchem; conditions: for solubility thermodynamic at 6 h: pH 7.4, aqueous buffer, thermodynamic from solid
Method: The solubility of the compounds under investigation here were assessed in phosphate buffer at pH 7.4 using the equilibrium shake-flask method.
An equilibrium shake-flask technique was used to determine the solubility of samples in PBS at pH 7.4. Approximately 1 mg of sample was placed in a 10 mL glass screw top vial and dissolved in 1 mL of 0.02 M PBS at pH 7.4. The solution was sonicated for 1 h, followed by shaking for 6 h (IKA HS 260). The saturated solution was then filtered using a nylon syringe filter. A standard solution of each sample was prepared by dissolving a weighed amount of the sample in 1 mL of DMSO. The concentration of sample dissolved in the PBS solution was determined by comparing the peak area of the PBS and DMSO standard using an Agilent 1100 series HPLC with a Sunshell C8 column (Chromanik Technologies Inc., Osaka, Japan). A 100 µL injection of the aqueous sample and 5 µL of DMSO solution (pre-diluted 100 fold using DMSO) were used.

[2] = system: A549 cells; assay: MTT cytotoxicity assay in A549 cells; type: cell-based; conditions: Homo sapiens
Method: A 3-[4,5-dimehyl-2-thiazolyl]-2,5-diphenyl-2H-tetrazoliumbromide (MTT) assay was utilized to assess the concentration-response curves for quinazoline analogues as previously reported. A549 cells (ATCC CCL-185, human alveolar basal epithelial cell line) were used to account for the general cytotoxicity of compounds. Cells were cultured in DMEM medium containing fetal bovine serum (FBS; 10%), penicillin (10 U/mL), and streptomycin (100 U/mL). The temperature was maintained at 37 °C with 5% CO2. Cells were seeded for 16–18 h in DMEM and incubated for 72 h with the test compounds. After incubation, MTT (5 mg/mL in normal saline) was added with DMEM and incubated for 3 h. Careful decantation of the medium and addition of DMSO (50 µL) was done. Absorbance values were recorded at 570 nm after 5 min mechanical shaking of the microplate (Sunrise microplate reader, Tecan).
The activity was presented as the inhibitory concentration required to produce a 50% response (IC50). Prism 6.0 GraphPad Software Inc., (San Diego, CA, USA) was utilized for data fitting. 0.5% DMSO was used as the negative control.

[3] = system: endothelium-denuded rat pulmonary arterial rings; assay: Vasorelaxation of PE pre-contracted endothelium-denuded (E−) pulmonary arterial rings, organ bath; conditions: for IC50: Table S3, endothelium-denuded, read-out: E- Vaso. pIC50 (converted); for EC50: endothelium-denuded (E−) rings pre-contracted with 10^-5 M PE, cumulative 0.0001–30 µM, mean (SEM), n = 6, read-out: Vaso E− EC50 µM (SEM); for Emax: maximal relaxation, endothelium-denuded rings, up to 30 µM, mean ± SEM
[4] = system: endothelium-intact rat pulmonary arterial rings; assay: Vasorelaxation of PE pre-contracted endothelium-intact (E+) pulmonary arterial rings, organ bath; conditions: Rattus norvegicus; for Emax: maximal relaxation, endothelium-intact rings, up to 30 µM, mean ± SEM; for IC50: Table S3, endothelium-intact, read-out: E+ Vaso. pIC50 (converted); for EC50: endothelium-intact (E+) rings pre-contracted with 10^-5 M PE, cumulative 0.0001–30 µM, mean (SEM), n = 6, read-out: Vaso E+ EC50 µM (SEM)
[5] = system: PE-induced contraction of endothelium-denuded pulmonary arterial rings; assay: Inhibition of phenylephrine (PE)-induced contraction in endothelium-denuded arterial rings; parameters: species or system rat; conditions: Rattus norvegicus; 10 µM compound, 15 min pre-incubation, PE 0.0001–100 µM, E− rings; n = 3–5; read-out: % PE-Contraction Inhibition (SEM)
Method: These experiments were undertaken to assess the pharmacological activity of quinazoline analogues against the structurally related α1 receptor blocker (prazosin). In contrast to previous vasorelaxant experiments, this protocol was developed to determine the inhibitory effect of pre-incubated (15 min) inhibitors (10 µM) on the concentration-dependent vasoconstriction induced by cumulative addition of PE (0.0001–100 µM) in endothelium-denuded pulmonary arterial rings. Figure 5 illustrates the real time contractile response shown by the pulmonary arterial ring upon cumulative addition of PE, which evoked a concentration-dependent vasoconstriction, increasing the vessel’s tension.
After anesthesia with thiopental sodium (100 mg/kg, i.p.) (Anesthal®, Jagsonpsal Pharmaceutical Ltd., Haryana, India), rats were euthanized by exsanguination. Lungs were carefully excised, cleaned by the removal of connective tissue, and placed in cold physiological Krebs’ solution composed of (mM): NaCl 122; KCl 5; N-[2-hydroxyethyl] piperazine-N′-[2-ethane-sulfonic acid] (HEPES) 10; KH2PO4 0.5; NaH2PO4 0.5; MgCl2 1; CaCl2 1.8; and glucose 11 adjusted to pH 7.3 using 1 M NaOH. The pulmonary artery was isolated from the lungs and cut into rings approximately 2 mm in length before mounting in the organ bath chambers. Endothelial cells were mechanically removed in some experiments by gentle rubbing of the inner surface with forceps. Pulmonary arterial rings were mounted on intraluminal wires via stainless steel hooks maintaining the resting tension at 1 g and rings were equilibrated for 30 min before obtaining a stable contraction with 10^−5 M phenylephrine (PE). The rings were immersed in 10 mL baths containing physiological Krebs’ solution at 37 °C, which was continuously bubbled with air. Force transducers were connected with intraluminal wires to measure isometric tension via a Mac Lab A/D converter (Chart V5, A.D. Instruments, Castle Hill, NSW, Australia). The functional integrity of the endothelium in the vessels was confirmed by vasorelaxation of ≥70% with sequential addition of 10^−5 M acetylcholine (ACh) to pre-contracted vessels with 10^−5 M PE. Relaxations ≤30% to 10^−5 M ACh in vessels rubbed mechanically were considered successfully endothelium denuded.
The protocol included the assessment of the inhibitory vasoconstriction effect of quinazoline test compounds on endothelium-denuded arterial rings. Briefly, the arterial rings were treated with the α1-receptor blocker (prazosin) or test compound at a concentration of 10 µM for 15 min before construction of the second concentration response curve with cumulative addition of PE (0.0001–100 µM). The same conditions were used to test the effects of the solvent (DMSO 0.2%). The results were obtained in percentages by comparison of the maximum contraction without treatment with the contraction in the presence of the test compound [24, 36, 37].

[6] = A549, MTT, 72 h incubation, read-out: A549 IC50, µM (S.D.)
[7] = Table S3, A549, read-out: Cytox. pIC50 (converted)

Compound | Log Sol ([1]; 6 h, pH 7.4) | Sol. pH7.4 (µM) ([1]; 6 h, pH 7.4) | solubility thermodynamic at 6 h [1] [µg/mL] | IC50 [2, 6] [µM] | IC50 [2, 7] [µM] | IC50 [3] [µM] | EC50 [3] [µM] | Emax [3] [%] | Emax [4] [%] | IC50 [4] [µM] | EC50 [4] [µM] | Sol. pH7.4 mg/mL ([1]; PBS pH 7.4, shake-flask) [mg/mL] | Sol. pH7.4 (µM) ([1]; PBS pH 7.4, shake-flask, value in brackets) | solubility thermodynamic at 6 h ([1]; phosphate buffered saline (PBS)) [µg/mL] | inhibition at 10 µM [5] [%]
NC(=O)c1ccc(Nc2nc(NCc3cccs3)c3ccccc3n2)cc1 [Compound 10] | 0.08 | 1.20 | 450 (≈ 1200 µM) | 28.3 | 28.2 | 5.13 | 5.15 | 90.4 ± 5.3 | 90.2 ± 6.48 | 1.45 | 1.46 |  |  |  | 
c1ccc(CNc2nc(Nc3ccccc3)nc3ccccc23)cc1 [Compound 1] | -0.39 | 0.41 | 130 (≈ 398 µM) | 12.3 | 12.3 | 13.5 | 13.5 | 86.4 ± 4.03 | 90 ± 5.64 | 5.5 | 5.54 |  |  |  | 
NS(=O)(=O)c1ccc(Nc2nc(NCc3ccccc3)c3ccccc3n2)cc1 [Compound 4] | -1.52 | 0.03 | 10 (≈ 24.7 µM) | 23 | 22.9 | 8.32 | 8.29 | 78.5 ± 9.19 | 88.5 ± 5.58 | 3.16 | 3.13 |  |  |  | 
NS(=O)(=O)c1ccc(Nc2nc(NCc3cccs3)c3ccccc3n2)cc1 [Compound 9] | -0.80 | 0.16 | 60 (≈ 146 µM) | 32.7 | 32.4 | 1.74 | 1.72 | 82.1 ± 8.43 | 98.4 ± 1.4 | 1.02 | 1.03 |  |  |  | 
CCCc1nn(C)c2c(=O)[nH]c(-c3cc(S(=O)(=O)N4CCN(C)CC4)ccc3OCC)nc12 [Sildenafil (SIL), Sildenafil, reference compound] |  |  |  |  |  |  | 0.89 | 85.8 ± 6.41 | 97.8 ± 2.19 |  | 0.14 | 20.83 | 43.88 | 20800 (≈ 43900 µM) | 58.3
NS(=O)(=O)c1cccc(Nc2nc(NCc3ccccc3)c3ccccc3n2)c1 [Compound 5] | 0.14 | 1.37 | 560 (≈ 1380 µM) | 11.2 | 11.2 | 1.15 | 1.15 | 95.8 ± 2.4 | 91.7 ± 3.77 | 1.62 | 1.63 |  |  |  | 
CN(C)S(=O)(=O)c1ccc(Nc2nc(NCc3ccccc3)c3ccccc3n2)cc1 [Compound 3] | -0.06 | 0.88 | 380 (≈ 877 µM) | 18.3 | 18.2 | 6.31 | 6.25 | 64.3 ± 5.31 | 82.4 ± 5.9 | 3.55 | 3.59 |  |  |  | 
c1ccc(Nc2nc(NCc3cccs3)c3ccccc3n2)cc1 [Compound 6] | -0.40 | 0.40 | 130 (≈ 391 µM) | 27.8 | 27.5 | 9.33 | 9.51 | 91.2 ± 5.26 | 88 ± 7.39 | 9.33 | 9.42 |  |  |  | 
NC(=O)c1cccc(Nc2nc(NCc3cccs3)c3ccccc3n2)c1 [Compound 12] | -0.25 | 0.56 | 210 (≈ 559 µM) | 15.4 | 15.5 | 8.13 | 8.15 | 87.1 ± 3.63 | 98.7 ± 1.31 | 4.17 | 4.15 |  |  |  | 
NS(=O)(=O)c1cccc(Nc2nc(NCc3cccs3)c3ccccc3n2)c1 [Compound 11] | -0.47 | 0.34 | 140 (≈ 340 µM) | 15 | 15.1 | 11 | 10.9 | 87.4 ± 4.66 | 98.7 ± 1.26 | 2.29 | 2.28 |  |  |  | 
